According to patent US20070167492A1, “Molluscicidal agents” (priority 2003, published 2007):

How the values were obtained:
Format in all cases: in vivo
[1] = system: Deroceras reticulatum (grey field slug); assay: Example 2: pot re-test, treated winter wheat seed with 5 adult slugs per pot, 7 days
From the text: Based on the results of the experiment described in Example 1, a selection was made from the various test numbers of that experiment for re-testing, partly to confirm the conclusions of that experiment and to test the unexpected outcome of some test compounds.
The selection of test numbers (Test No.) used in the present experiment relative to those of the experiment described in Example 1 is shown in Table 7.
The same seeds as described in Example 1 were sown in earthenware pots with an internal diameter of 20 cm and a height of 18 cm, filled with 7 cm of potting soil (Trio BV, Weesp, The Netherlands) and with a top 2 cm of white quartz sand. A total of 40 winter wheat seeds was placed in each pot, in a pattern of concentric circles on top of the quartz sand, the germ of the seed facing upwards. To each pot a total of 5 adult specimens of the test slug Deroceras reticulatum (grey field slug) were added. The pots were incubated at 18-19° C. with a relative humidity of ±95% and light regime of ±18 hours light/6 hours dark, without artificial lighting. The pots were not irrigated overhead. In total, 4 parallel tests were performed for each test.
The number of damaged seeds was, the number of plants present (germinated and not eaten or damaged by the slugs), the number of dead slugs and of the number of fecal pellets were determined after 2, 3 and 7 days following the addition of the slugs.
The data were statistically analysed by using F-tests (α=0.05) and pair-wise Student-tests.

[2] = system: Deroceras reticulatum (grey field slug); assay: Example 1: pot test, treated winter wheat seed with 5 adult slugs per pot, 14 days
Outline: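 Fludioxonil-disinfected winter wheat seed (Kampa, 40 per pot) sown on quartz sand over potting soil with 5 adult slugs per pot; ±15° C., ±90% RH, 12 h light/12 h dark, 4 replicates. Damaged seeds, plants, dead slugs and fecal pellets counted up to day 14; F-tests and Student-tests.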

[3] = system: Winter wheat (Kampa race) seeds; assay: Seed germination test of treated winter wheat seeds (rolled in paper); conditions: 3x50 seeds, 6 days at 22° C.
Outline: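 Seeds were disinfected with fludioxonil-containing Beret Gold (2 ml per kg seed) and coated with Sepiret® for formulations unsuitable for coating. Germination of 3×50 seeds rolled in paper was scored after 6 days at continuous 22° C. under a 16 hours light regime.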

[4] = Example 2, 10 ml formulated per kg seed, 2 days after sowing
[5] = Example 2, 10 ml formulated per kg seed, 3 days after sowing
[6] = Example 2, 10 ml formulated per kg seed, 7 days after sowing
[7] = 2 ml formulated per kg seed, 2 days after sowing
[8] = 2 ml formulated per kg seed, 3 days after sowing
[9] = 2 ml formulated per kg seed, 7 days after sowing
[10] = 2 ml formulated per kg seed, 10 days after sowing
[11] = 2 ml formulated per kg seed, 14 days after sowing
[12] = 10 ml formulated per kg seed, 2 days after sowing
[13] = 10 ml formulated per kg seed, 3 days after sowing
[14] = 10 ml formulated per kg seed, 7 days after sowing
[15] = 10 ml formulated per kg seed, 10 days after sowing
[16] = 10 ml formulated per kg seed, 14 days after sowing

**Q.** Which results are given for abamectine?
**A.** number of plants present relative to untreated ([1]; Example 2): no significantly different results; phytotoxic effect on the seeds ([1]; Example 2): phytotoxic effect on the seeds; result of seed treatment against slugs (conclusion) ([1]; Example 2): does not give the desired effect; percentage of damaged seeds after 7 days ([1]; Example 2, 10 ml formulated per kg seed): 31%; Mean number of damaged seeds per pot [1, 4]: 2.8; Mean number of dead slugs per pot [1, 4]: 0; Mean number of damaged seeds per pot [1, 5]: 6.0; Mean number of dead slugs per pot [1, 5]: 0.3; Mean number of damaged seeds per pot [1, 6]: 12.5; Mean number of dead slugs per pot [1, 6]: 0.8; number of damaged seeds relative to the untreated seed ([1]; Example 2, two days after the start): significant reduction in the number of damaged seeds; Mean number of fecal pellets per pot ([1]; dosage 10 ml, 2 days): 11; Mean number of plants present per pot ([1]; dosage 10 ml, 2 days): 0.3; Mean number of fecal pellets per pot ([1]; dosage 10 ml, 3 days): 30; Mean number of plants present per pot ([1]; dosage 10 ml, 3 days): 1.3; Mean number of fecal pellets per pot ([1]; dosage 10 ml, 7 days): 69; Mean number of plants present per pot ([1]; dosage 10 ml, 7 days): 4.5; number of utilizable plants after 7 days ([1]; dosage 10 ml, 7 days): 2.0; number of utilizable plants after 14 days ([2]; 2 ml formulated per kg seed): 0.8; percentage of damaged seeds after 14 days ([2]; 2 ml formulated per kg seed): 93%; Mean number of damaged seeds per pot [2, 7]: 3.8; Mean number of dead slugs per pot [2, 7]: 0; Mean number fecal pellets per pot [2, 8]: 43; Mean number of damaged seeds per pot [2, 8]: 14.3; Mean number of dead slugs per pot [2, 8]: 0; Mean number of plants present per pot [2, 8]: 6.3; Mean number fecal pellets per pot [2, 9]: 119; Mean number of damaged seeds per pot [2, 9]: 35.8; Mean number of dead slugs per pot [2, 9]: 0; Mean number of plants present per pot [2, 9]: 0; Mean number fecal pellets per pot [2, 10]: 133; Mean number of damaged seeds per pot [2, 10]: 35.5; Mean number of dead slugs per pot [2, 10]: 0.3; Mean number of plants present per pot [2, 10]: 0.8; Mean number fecal pellets per pot [2, 11]: 140; Mean number of damaged seeds per pot [2, 11]: 37.0; Mean number of dead slugs per pot [2, 11]: 0.3; Mean number of plants present per pot [2, 11]: 0.8; number of utilizable plants after 14 days ([2]; 10 ml formulated per kg seed): 9.0; percentage of damaged seeds after 14 days ([2]; 10 ml formulated per kg seed): 61%; Mean number of damaged seeds per pot [2, 12]: 1.5; Mean number of dead slugs per pot [2, 12]: 0.3; Mean number fecal pellets per pot [2, 13]: 15; Mean number of damaged seeds per pot [2, 13]: 3.3; Mean number of dead slugs per pot [2, 13]: 0.5; Mean number of plants present per pot [2, 13]: 3.8; Mean number fecal pellets per pot [2, 14]: 89; Mean number of damaged seeds per pot [2, 14]: 21.0; Mean number of dead slugs per pot [2, 14]: 1.3; Mean number of plants present per pot [2, 14]: 6.0; Mean number fecal pellets per pot [2, 15]: 106; Mean number of damaged seeds per pot [2, 15]: 23.8; Mean number of dead slugs per pot [2, 15]: 1.3; Mean number of plants present per pot [2, 15]: 8.8; Mean number fecal pellets per pot [2, 16]: 114; Mean number of damaged seeds per pot [2, 16]: 24.3; Mean number of dead slugs per pot [2, 16]: 1.5; Mean number of plants present per pot [2, 16]: 9.0; damaged seeds relative to the untreated control ([2]; Example 1, 10 ml/kg, after 3, 7 and 14 days): significantly less damaged seeds; protection / slug controlling effect (conclusion) ([2]; Example 1, winter wheat seed treatment, dosages tested): no sufficient protection to the plants; Percentage germinated ([3]; 2 ml formulated per kg seed): 47%; Percentage germinated ([3]; 10 ml formulated per kg seed): 2%
